According to US12551479B2, “Acyl-protein thioesterase inhibitor for the treatment and/or prevention of Huntington's disease” (UNIVERSITÉ GRENOBLE ALPES, priority 2019, dated 2026):

System: Hdh^CAG140/+ mice
Assay: Novelty-Suppressed Feeding test
Type: in vivo, mouse
Details: Hdh^CAG/+ mice, 0.3 mg/kg/day subcutaneous infusion
Experimental: Mice littermates were grouped into mixed treatment groups. Males and females were 6 months of age at the beginning of the treatment. For each specific test, all experimental groups were tested on the same day, during the light phase and between Days 16 and 28 of treatment. Prior to testing, mice were acclimatized to the test room for a period of 30 minutes. Treatments were randomly assigned and behavioral tests were performed 12 days before the end of the delivery of the treatment. […] Mice were excluded from analysis if their performance was calculated as a significant outlier by the Grubb test. One mouse was excluded based on these criteria. Mouse weights were measured prior to the start of treatment and until the end of testing.
The test was performed as in Pla et al., 2013. Animals were food-deprived during 24 hours to increase motivation to consume food. On the day of testing, mice were placed within the testing apparatus, which consisted of a plastic box (50 cm×30 cm×15 cm), the floor of which covered with wooden bedding. Mice were videorecorded and allowed to freely explore the area until they eat the food pellet or for a maximum of 10 minutes. The mice were considered to eat the pellet when they bite the pellet while sitting comfortably.

O=C(CN1CCN(C(=O)c2ccco2)CC1)Nc1cc(C(F)(F)F)ccc1Cl [ML-348]
latency to feeding in a new environment: restores the behavior of Hdh^CAG/+ mice to that of wild-type mice
